Test systems include SK-MEL-5 melanoma; ACHN renal; SNB-75 CNS; HT29 colon; PC-3 prostate; SK-MEL-2 melanoma; SF-295 CNS; SNB-19 CNS.
Test in all cases: inhibition of tumour cell growth, NCI panel, 48 h

Several values for one entry are separate records, joined by “and”; a condition that tells them apart may be missing. Identical values can stand only once.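 Interpolation was linear, between the two tested concentrations surrounding the appropriate level; five concentrations were tested over 48 hours in 96-well plates. The concentration for 50% growth inhibition is given as GI50. TGI marks complete inhibition of growth.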

These results are taken from PubChem BioAssay (NCI).

Regarding `O=c1ccn(C2CC(O)C(CO)O2)c(=O)[nH]1` (centres undefined), the GI50 in the assay with SK-MEL-5 melanoma, in the assay with ACHN renal, in the assay on SNB-75 CNS, with HT29 colon, with PC-3 prostate and in the assay on SK-MEL-2 melanoma was over 5000 µM throughout. For the same compound, the GI50 with SF-295 CNS and in the assay on SNB-19 CNS was over 5000 µM each time. The TGI in the assay on SK-MEL-5 melanoma, in the assay on ACHN renal, with SNB-75 CNS, in the assay with HT29 colon, in the assay on PC-3 prostate and in the assay with SK-MEL-2 melanoma was over 5000 µM each time. For the same compound, the TGI in the assay with SF-295 CNS and in the assay with SNB-19 CNS was over 5000 µM throughout.

For `O=[N+]([O-])c1ccc2c(c1)Cc1cc(N=Cc3ccc4c(c3)OCO4)ccc1-2`, the TGI in the assay on SK-MEL-5 melanoma, in the assay with ACHN renal, in the assay with SNB-75 CNS, in the assay with HT29 colon, in the assay on PC-3 prostate and in the assay on SK-MEL-2 melanoma was over 100 µM in each case. In addition, the TGI in the assay with SF-295 CNS and in the assay with SNB-19 CNS was over 100 µM throughout.

Regarding `Cc1ccc(-c2nc(C#N)c(S(=O)(=O)n3nc(C)cc3N)o2)cc1`, the GI50 in the assay on ACHN renal is 1.91 µM; with SNB-75 CNS, 13.7 µM; in the assay with HT29 colon, 2.37 µM; in the assay with PC-3 prostate it was 13.8 µM; with SK-MEL-2 melanoma, 15 µM; in the assay on SF-295 CNS it was 15.8 µM. The GI50 in the assay on SNB-19 CNS was 14.1 µM. In addition, the TGI amounted to 3.38 µM in the assay with ACHN renal; 27.1 µM with SNB-75 CNS; 5.45 µM in the assay with HT29 colon; 29.8 µM with PC-3 prostate; 32.3 µM with SK-MEL-2 melanoma; 30.5 µM in the assay on SF-295 CNS. In the assay on SNB-19 CNS, this compound had a TGI of 28.4 µM.

Regarding `NC(=O)c1ccccc1Nc1ccc2nnc(-c3ccncc3)n2n1`, the GI50 in the assay on SK-MEL-5 melanoma was 4.74 µM; in the assay with ACHN renal, 6.32 µM; in the assay with SNB-75 CNS, 13.6 µM; in the assay with HT29 colon, 6.39 µM; in the assay with PC-3 prostate, 16.2 µM; with SNB-19 CNS it was 14.4 µM. Besides, the TGI in the assay on SK-MEL-5 melanoma turned out to be 16.9 µM; in the assay on ACHN renal, 20.7 µM; in the assay with SNB-75 CNS, 26.5 µM; with HT29 colon, 19.2 µM; with PC-3 prostate it was 30.3 µM; in the assay on SNB-19 CNS, 31.8 µM.

As for `COc1ccc(-c2nc(/C=N/Nc3cc(C)nc4ccc(Cl)cc34)c(C)o2)cc1`, the GI50 in the assay on SK-MEL-5 melanoma is 1.77 µM; in the assay with ACHN renal it was 1.81 µM; with SNB-75 CNS, 1.44 µM; in the assay on PC-3 prostate, 1.66 µM; with SK-MEL-2 melanoma it was 10.9 µM; with SF-295 CNS, 1.82 µM. Also, the GI50 in the assay on SNB-19 CNS was 1.81 µM. Also, the TGI came to 3.17 µM in the assay on SK-MEL-5 melanoma; 3.2 µM with ACHN renal; 2.93 µM with SNB-75 CNS; 3.17 µM with PC-3 prostate; 24.1 µM in the assay with SK-MEL-2 melanoma; 3.31 µM in the assay on SF-295 CNS. The compound further had a TGI in the assay on SNB-19 CNS of 3.46 µM.

For the compound `C[C@]12CCc3sc(NCCc4ccccc4)nc3C1=CC[C@@H]1[C@@H]2CC[C@]2(C)C(=O)CC[C@@H]12`, the GI50 is 4.57 µM with SK-MEL-5 melanoma; 1.96 µM in the assay on ACHN renal; 2.2 µM with HT29 colon; 3.35 µM with PC-3 prostate; 17 µM with SK-MEL-2 melanoma; 18.9 µM in the assay on SF-295 CNS. Also, the GI50 in the assay with SNB-19 CNS was 97.5 µM. Besides, the TGI in the assay with SK-MEL-5 melanoma is 52.7 µM; in the assay with ACHN renal, 3.75 µM; with HT29 colon, 8.11 µM; with PC-3 prostate, over 100 µM; with SK-MEL-2 melanoma, over 100 µM; in the assay with SF-295 CNS, over 100 µM. Besides, in the assay on SNB-19 CNS, the TGI was over 100 µM.

In the case of `NC(=O)c1ccc(I)c(N=O)c1`, the GI50 is 34.2 µM in the assay with SK-MEL-5 melanoma; 30.8 µM in the assay on ACHN renal; 19.9 µM in the assay with SNB-75 CNS; 20.6 µM in the assay on HT29 colon; 31.3 µM in the assay with SK-MEL-2 melanoma; over 100 µM in the assay with SF-295 CNS. Further, the GI50 with SNB-19 CNS was over 100 µM. Moreover, the TGI in the assay on SK-MEL-5 melanoma is over 100 µM; with ACHN renal it was over 100 µM; with SNB-75 CNS, 69.4 µM; with HT29 colon it was 39.5 µM; with SK-MEL-2 melanoma it was 87.8 µM; in the assay on SF-295 CNS, over 100 µM. For the same compound, the TGI in the assay with SNB-19 CNS was over 100 µM.

For the compound `Cc1cc(Cl)ccc1Nc1nc(C(F)(F)F)ccc1C(=O)N/N=C/c1ccc(Cl)cc1`, the GI50 in the assay on SK-MEL-5 melanoma is 1.52 µM; with ACHN renal, 2.48 µM; in the assay with SNB-75 CNS it was 1.51 µM; in the assay with HT29 colon it was 3.24 µM; in the assay on PC-3 prostate, 2.13 µM; in the assay with SK-MEL-2 melanoma it was 2.18 µM. For the same compound, the GI50 in the assay with SNB-19 CNS is 2.6 µM. In addition, the TGI with SK-MEL-5 melanoma is 3.02 µM; in the assay on ACHN renal it was 8.71 µM; in the assay on SNB-75 CNS, 6.48 µM; in the assay on HT29 colon it was 10.4 µM; with PC-3 prostate, 9.31 µM; with SK-MEL-2 melanoma, 9.2 µM. This compound also returned a TGI with SNB-19 CNS of 12.4 µM.

For the compound `C#CC1(O)C(COP(=O)(O)OC(COCCCCCCCCCCCCCCCCCC)COP(=O)(O)OCC2OC(n3cc(F)c(=O)[nH]c3=O)CC2O)OC(n2ccc(N)nc2=O)C1O` (centres undefined), the TGI is over 100 µM in the assay with ACHN renal; 18.7 µM and 30.2 µM in the assay on SNB-75 CNS; > 100 µM and 41.5 µM in the assay with HT29 colon; 24.3 µM and 11.4 µM in the assay on PC-3 prostate; 1.88 µM and 3.48 µM with SK-MEL-2 melanoma; 16.7 µM and 15.1 µM in the assay on SNB-19 CNS. Moreover, the GI50 was 0.343 µM and 0.975 µM in the assay on SNB-75 CNS; 0.947 µM and 0.417 µM in the assay on PC-3 prostate; < 0.049 µM and 0.432 µM in the assay with SK-MEL-2 melanoma; < 0.021 µM and 0.0441 µM in the assay with SF-295 CNS.

For `CN(C)CCNC(=O)c1cc([N+](=O)[O-])cc2c1Oc1ccccc1O2`, the TGI in the assay with SK-MEL-5 melanoma was over 100 µM; in the assay on ACHN renal it was over 100 µM; with SNB-75 CNS, 38.9 µM; in the assay on HT29 colon it was over 100 µM; in the assay on PC-3 prostate it was over 100 µM; in the assay with SK-MEL-2 melanoma it was 56.3 µM. Moreover, the TGI with SF-295 CNS was over 100 µM.

Consider `O=c1cc(-c2ccccc2F)[nH]c2ccc(N3CCCC3)cc12`, for which the GI50 in the assay with SK-MEL-5 melanoma, in the assay on HT29 colon and in the assay on SNB-19 CNS was under 0.001 µM in each case. For the same compound, the TGI in the assay on ACHN renal is over 100 µM; in the assay with SNB-75 CNS, over 100 µM; in the assay with PC-3 prostate, over 100 µM; in the assay with SK-MEL-2 melanoma it was over 100 µM; with SNB-19 CNS, 0.0725 µM.

For `O=C(Nc1ccncc1)C(=O)c1cn(Cc2ccc(Cl)cc2)c2ccccc12`, the GI50 was 0.0309 µM in the assay on SK-MEL-5 melanoma; 0.082 µM in the assay with ACHN renal; 0.0375 µM with SNB-75 CNS; 0.0363 µM with HT29 colon; 0.0419 µM in the assay on PC-3 prostate; 0.0217 µM with SF-295 CNS. Moreover, the GI50 in the assay on SNB-19 CNS is 0.0622 µM. Besides, the TGI with SK-MEL-5 melanoma is over 35 µM; in the assay with ACHN renal it was over 100 µM; in the assay on SNB-75 CNS, 3.79 µM; in the assay on HT29 colon, over 100 µM; with PC-3 prostate, over 100 µM; in the assay with SF-295 CNS it was 0.0803 µM. The TGI in the assay with SNB-19 CNS is over 100 µM.

As for `Cc1cc(C(=C2C=CC(=Nc3ccccc3)C=C2)c2ccc(Nc3ccccc3)cc2)ccc1N`, the GI50 was 0.253 µM with SK-MEL-5 melanoma; 0.377 µM in the assay with ACHN renal; 0.598 µM with SNB-75 CNS; 0.164 µM in the assay on HT29 colon; 0.216 µM with SK-MEL-2 melanoma; 0.385 µM in the assay with SF-295 CNS. Moreover, the GI50 in the assay with SNB-19 CNS is 0.397 µM. Also, the TGI amounted to 0.718 µM in the assay with SK-MEL-5 melanoma; 1.31 µM in the assay with ACHN renal; 2.22 µM in the assay with SNB-75 CNS; 0.302 µM in the assay with HT29 colon; 0.529 µM with SK-MEL-2 melanoma; 1.35 µM with SF-295 CNS. The same compound yielded a TGI in the assay on SNB-19 CNS of 1.56 µM.

Consider `CCn1cc(C(=O)N/N=C/c2ccccc2)c(=O)c2cc(F)c(N3CCNC(C)C3)c(F)c21` (centres undefined), for which the GI50 was 1.76 µM in the assay on SK-MEL-5 melanoma, 1.73 µM in the assay with ACHN renal, 1.6 µM in the assay with PC-3 prostate and 1.83 µM in the assay on SF-295 CNS. Further, the TGI in the assay on SK-MEL-5 melanoma came to 3.14 µM; in the assay with ACHN renal, 3.12 µM; in the assay with PC-3 prostate, 3.01 µM; with SF-295 CNS it was 3.35 µM.

As to `CCOC(=O)c1c2c(n(Cc3ccc(Cl)cc3Cl)c1C)-c1nc[nH]c1C(=O)C2=O`, the GI50 is 13 µM in the assay on SK-MEL-5 melanoma; 4.45 µM in the assay on ACHN renal; 1.99 µM in the assay with SNB-75 CNS; 15.5 µM with HT29 colon; 19.5 µM in the assay on SK-MEL-2 melanoma; 20.5 µM in the assay on SF-295 CNS. Also, the GI50 with SNB-19 CNS was 12.6 µM. Moreover, the TGI came to 25.7 µM in the assay on SK-MEL-5 melanoma; 16.1 µM with ACHN renal; 9.62 µM in the assay with SNB-75 CNS; 28.8 µM in the assay with HT29 colon; 41.2 µM in the assay with SK-MEL-2 melanoma; 92.2 µM in the assay on SF-295 CNS. In the assay with SNB-19 CNS, this compound yielded a TGI of 26.2 µM.

For `COc1ccc2c(c1)nnn1c3ncccc3c(N=O)c21`, the GI50 was 5.01 µM and 11.7 µM with SK-MEL-5 melanoma; 0.374 µM in the assay on ACHN renal; 0.622 µM and 1.2 µM in the assay with HT29 colon; 2.05 µM with PC-3 prostate; 2.18 µM and 4.29 µM in the assay with SK-MEL-2 melanoma; 4.69 µM and 6.95 µM in the assay with SF-295 CNS. Also, in the assay with SNB-19 CNS, the GI50 is 6.28 µM and 11.8 µM. For the same compound, the TGI was 11.1 µM and 24.1 µM in the assay with SK-MEL-5 melanoma; over 100 µM in the assay on ACHN renal; 92.7 µM in the assay on PC-3 prostate; 10.3 µM and > 100 µM in the assay on SK-MEL-2 melanoma; 15.3 µM and 32 µM in the assay with SF-295 CNS; 16.2 µM and 34.2 µM with SNB-19 CNS.
